Measured values from US7230016B2, “Pioglitazone salts, such as pioglitazone sulfate, and pharmaceutical compositions and processes using the same” (priority 2003, dated 2007).
“Also recorded” adds a separate entry of the source. Where a name gives a salt, the structure may show the parent alone. Read-outs that look alike come from different tables or passages of the source.

Assays:
[1] = Aqueous solubility of pioglitazone salts derived from strong acids or bases; assay type: physicochemical; settings: for soluble in H2O: aqueous solubility of the salt, * = the salt is dissolved in water to form a blurred solution
Method: As used herein a pioglitazone salt is considered “water-soluble” if a salt concentration of at least 7 mg/ml can be achieved, even if only momentarily, in distilled water at 25° C. […] The base salts also dissolved in water but they typically formed an unclear solution. The water-soluble salts of pioglitazone are useful as active agents in forming a pioglitazone pharmaceutical composition, especially solid dosage forms, as is described herein after. […] Depending on the salt, the precipitation of a solid begins as quickly as within a few minutes or after several hours. The time of precipitation also depends on nucleation. In particular, once a solid forms, the solution quickly precipitates to form a complete suspension.

[2] = Stability of pioglitazone sulfate aqueous solution with HPMC as solution stabilizer (Examples 3 and 4); assay type: physicochemical
Excerpt: Specifically, a solution stabilizer can be effectively added to a pioglitazone sulfate aqueous solution to enhance the stability. As used herein a “solution stabilizer” is an additive that when present in some amount in an aqueous pioglitazone sulfate solution, provides a statistically significant delay in the precipitation of pioglitazone base from the solution in comparison to the same solution held under the same conditions but without the solution stabilizer contained therein. […] Typically the solution stabilizer is a polymer, such as a water-soluble polymer, or a crown-ether. The solution stabilizer may be fully dissolved, partly dissolved and/or swelled, or not dissolved in the aqueous solution, but is preferably dissolved therein. Preferably the solution stabilizer is hydroxypropylmethylcellulose (HPMC), polyvinylpyrrolidone, or cyclodextrin, and most preferably HPMC. The amount of solution stabilizer is generally within the range of 1 to 500 mg/ml of the solution, typically 1 to 200 mg/ml, more typically 10 to 100 mg/ml. A stabilized pioglitazone sulfate solution is thus especially useful as a liquid pharmaceutical formulation and/or for making a liquid pharmaceutical formulation. The following system was tested using HPMC as an additive. […] To a clear solution containing 1.0 g of hydroxypropylmethylcellulose (HPMC) in 25 ml of H2O was added 125 mg of pioglitazone sulfate with stirring.

[3] = Properties of pioglitazone sulfate (solid state, methanol solubility, pH of aqueous solution); assay type: physicochemical
Method: Of the water-soluble salts, pioglitazone sulfate is the most preferred. As used herein “pioglitazone sulfate” means the salt formed from pioglitazone and sulfuric acid. The salt preferably has approximately a 1:1 molar ratio of pioglitazone moiety to sulfuric acid moiety, especially in solid form. […] Pioglitazone sulfate may be isolated in solid state as a white or almost white crystalline material. It melts at a temperature of about 105 to 115° C., without decomposition. […] Pioglitazone sulfate is thus an especially useful form of pioglitazone for making pharmaceutical formulations, e.g., as an active agent. The pioglitazone sulfate can precipitate from the solution spontaneously, but more likely some step such as cooling, concentrating, adding a seeding crystal, or adding a contrasolvent is advantageously and/or necessarily carried out. As pioglitazone sulfate is soluble in methanol, the addition of a contrasolvent is advantageous for precipitating the solid state salt. […] The size and shape of the formed crystals may be modified by known ways, for instance by precipitation regimen or by using crystallization modifiers. Solid state pioglitazone sulfate is a stable, easily handled solid material, and it may be used as an equivalent to pioglitazone hydrochloride in pharmaceutical compositions for treating pioglitazone-treatable diseases. […] Liquid compositions, particularly aqueous compositions, may include a solution stabilizer as indicated above. The stabilizer preferably comprises a water-soluble polymer, such as hydroxypropylmethylcellulose. The concentration of the polymer in the solution can be within any of the above-described ranges but most preferably is within the range from 0.1 to 10% (w/V) of the total volume. An aqueous solution of pioglitazone sulfate typically has a pH of about 4, which is well suited for both parenteral and peroral compositions.

[4] = Dissolution experiment comparing pioglitazone salts (Example 2); assay type: physicochemical; settings: room temperature; for Dissolution (instant dissolution rate): 0.25 mmol salt added into 10 ml H2O with stirring, ** = salt dissolved partially to form an unclear solution; for later behaviour of the solution (turning into suspension / pioglitazone base) / kind of solution yielded on addition to water: 0.25 mmol salt in 10 ml H2O, stirring; for kind of solution yielded on addition to water: tosylate and 2-napsylate within 1 minute
Method: At room temperature, each pioglitazone salt (0.25 mmol) was added into 10 ml H2O with stirring.

[5] = cited from earlier work

With `CCc1ccc(CCOc2ccc(CC3SC(=O)NC3=O)cc2)nc1` (stereo not shown) [Hydrobromide] the “soluble in H2O” value [1] was “No”.

In the case of `CCc1ccc(CCOc2ccc(CC3SC(=O)NC3=O)cc2)nc1` (stereo not shown) [Ca salt], the “soluble in H2O” value [1] is reported as “yes*”.

In the case of `CCc1ccc(CCOc2ccc(CC3SC(=O)NC3=O)cc2)nc1` (stereo not shown) [Sulfate, pioglitazone sulfate], the “soluble in H2O” value [1] is reported as “Yes”, the “stability of the water solution (precipitation of pioglitazone base)” value ([1]; aqueous solution without stabilizer) is reported as “can stably remain in an aqueous solution for hours; also recorded: will eventually, after a trace of solid appears, turn into a suspension of pioglitazone base” and the “dissolution in water” value [1] is reported as “dissolved instantly in water”. The “solubility in water” value [1] was “superior aqueous solubility”, the “dissolution in HPMC water solution” value ([2]; 100 mg in HPMC water solution (2%, 25 ml)) was “easily dissolved” and the “dissolution in HPMC water solution” value ([2]; 125 mg added with stirring to 1.0 g HPMC in 25 ml H2O) was “A clear solution was formed”. The “stability of the HPMC-stabilized solution” value ([2]; 125 mg in 1.0 g HPMC / 25 ml H2O, stirred at room temperature for more than one month) was “No obvious solid appeared”, the “stability of the HPMC-stabilized solution” value ([2]; 0.4% w/v pioglitazone sulfate in 2% HPMC water solution, room temperature, no obvious precipitation of a solid) was “stable at room temperature for at least four weeks” and the “pH of aqueous solution” value ([3]; aqueous solution) was “about 4”. The solubility in methanol ([3]; methanol) was “soluble”, the “hygroscopicity of the solid compound” value ([3]; solid) was “not hygroscopic” and the “stability of the solid state material” value ([3]; solid state) was “stable”. For the same compound, the “Dissolution (instant dissolution rate)” value [4] was “Yes”, the “later behaviour of the solution (turning into suspension / pioglitazone base)” value [4] was “slowly turned into a suspension” and the “kind of solution yielded on addition to water” value (“kind of solution yielded” for short) [4] was “clear solutions”.

With `CCc1ccc(CCOc2ccc(CC3SC(=O)NC3=O)cc2)nc1` (stereo not shown) [Hydrochloride, Pioglitazone hydrochloride] the “soluble in H2O” value ([1]; hydrochloride) was “No”, the “behaviour of methanolic solution poured into water” value ([1]; no base (neutralizing agent) used) was “pioglitazone base quickly precipitates” and the “dissolution in water” value ([1]; hydrochloride) was “did not dissolve in water”. The “solubility in N,N-dimethylformamide” value ([5]; N,N-dimethylformamide) was “dissolves well”, the solubility in acetone ([5]; acetone) was “very slightly soluble” and the solubility in acetonitrile ([5]; acetonitrile) was “very slightly soluble”. The “solubility in anhydrous ethanol” value ([5]; anhydrous ethanol) was “slightly soluble”, the solubility in dimethyl-sulfoxide ([5]; dimethyl-sulfoxide) was “dissolves well” and the solubility in ether ([5]; ether) was “insoluble”. For the same compound, the “stability of the crystalline material” value ([5]; room temperature and under moisture) was “stable” and the solubility in water ([5]; water, hydrochloride) was “practically insoluble; also recorded: extremely insoluble”.

With `CCc1ccc(CCOc2ccc(CC3SC(=O)NC3=O)cc2)nc1` (stereo not shown) [Na salt] the “soluble in H2O” value [1] was “yes*”.

For `CCc1ccc(CCOc2ccc(CC3SC(=O)NC3=O)cc2)nc1` (stereo not shown) [Edisylate], the “soluble in H2O” value [1] was “Yes”, the “dissolution in water” value ([1]; listed as ethane-di-sulfonate) was “dissolved instantly in water” and the “Dissolution (instant dissolution rate)” value ([4]; listed as ethane-disulfonate) was “Yes”. The “later behaviour of the solution (turning into suspension / pioglitazone base)” value ([4]; listed as ethane disulfonate) was “slowly turned into a suspension” and the “kind of solution yielded” value ([4]; listed as ethane disulfonate) was “clear solutions”.

For `CCc1ccc(CCOc2ccc(CC3SC(=O)NC3=O)cc2)nc1` (stereo not shown) [K salt], the “soluble in H2O” value [1] was “yes*”.

For `CCc1ccc(CCOc2ccc(CC3SC(=O)NC3=O)cc2)nc1` (stereo not shown) [Tosylate], the “Dissolution (instant dissolution rate)” value [4] was “yes/no**”, the “later behaviour of the solution (turning into suspension / pioglitazone base)” value [4] was “quickly turned into a suspension” and the “kind of solution yielded” value [4] was “unclear solutions”.

For `CCc1ccc(CCOc2ccc(CC3SC(=O)NC3=O)cc2)nc1` (stereo not shown) [pioglitazone base, 5-[[4-[2-(5-ethyl-2-pyridinyl)-ethoxy]phenyl]methyl]-2,4-thiazolidinedione, reference compound], the “solubility in water” value [1] was “so low”.

In the case of `CCc1ccc(CCOc2ccc(CC3SC(=O)NC3=O)cc2)nc1` (stereo not shown) [Mesylate], the “soluble in H2O” value [1] is reported as “Yes” and the “dissolution in water” value [1] is reported as “dissolved instantly in water”.

In the case of `CCc1ccc(CCOc2ccc(CC3SC(=O)NC3=O)cc2)nc1` (stereo not shown) [2-Napsylate], the “soluble in H2O” value [1] is reported as “Slight”, the “Dissolution (instant dissolution rate)” value [4] is reported as “yes/no**” and the “later behaviour of the solution (turning into suspension / pioglitazone base)” value [4] is reported as “quickly turned into a suspension”. The “kind of solution yielded” value [4] was “unclear solutions”.

In the case of `CCc1ccc(CCOc2ccc(CC3SC(=O)NC3=O)cc2)nc1` (stereo not shown) [Choline salt], the “soluble in H2O” value [1] is reported as “yes*”.
